Measured values taken from PubChem BioAssay AID179 (DTP/NCI, 2004).
Activity calls are given as the source filed them.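 Rule for the calls: active = compounds giving half or more protection of infected cells from virus-caused growth loss, again on retest; inactive = the rest.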 Where a SMILES comes first, the peptide text is derived from it.

System: CEM cells HIV-1 protection, formazan growth assay
Assay: NCI AIDS Antiviral Assay
Conditions: for IC50: measured here: growth of uninfected CEM cells
Procedure, shortened: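 Soluble formazan readout of cell growth; CEM cells ± HIV-1; 5 drug concs. ≥50% protection → retest; ≥50% again = moderately active; reproducible 100% = confirmed active.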

SMILES | EC50 | IC50 | outcome
N#Cc1c(N)nc(-c2ccc(Cl)cc2)c2c1-c1ccccc1S(=O)(=O)CC2 | > 100 µM | > 100 µM | –
COc1cc2c(c(OC)c1OC)C(=O)[C@@H]1[C@H]2N1C(N)=O | > 200 µM | 4.17 µM | –
C/C(=N\Nc1ccc([N+](=O)[O-])cc1)C(=O)N(C)Nc1ccccc1 | – | – | inactive
Cc1ccc2c(c1)C(=O)C1(Cc3ccccc3C1=O)C2 (stereo not drawn) | > 200 µM | > 200 µM | –
CC(C)P(=S)(OCc1ccccc1)C(C)C | > 200 µM | 126 µM | –
O=C(Oc1ccc(OC(=O)c2ccccc2)c(C(=O)c2ccccc2)c1C(=O)c1ccccc1)c1ccccc1 | > 200 µM | > 200 µM | –
CC(C)(CO)NCC(O)CS(=O)(=O)O (stereo not drawn) | > 200 µM | > 200 µM | –
CC(C)(C)OC(=O)N(CCCN)CCCCN(CCCN)C(=O)OC(C)(C)C | – | – | inactive
CCOC(=O)/C=C/SC(C)(C)C(N)C(=O)O (stereo not drawn) | > 1000 µM | > 1000 µM | –
N#CCC1C2CC3C(C2=O)C13 (stereo not drawn) | > 200 µM | > 200 µM | –
CCCCCCCCCN1CCC(=O)C(C(=O)OC)C1 (stereo not drawn) | > 200 µM | 4.68 µM | –
COc1ccc2c(O)c(C)c(=O)n(C)c2c1 | > 200 µM | > 200 µM | –
O=S1(=O)CCCc2c1ccc1ccccc21 | > 200 µM | > 200 µM | –
COC(=O)c1cc(C(c2cc(C(=O)OC)c(OC)c(Br)c2C)C(Cl)(Cl)Cl)c(C)c(Br)c1OC | > 200 µM | 25.7 µM | –
CCC(C)(C)OC(=O)CC[C@@H](C)[C@H]1CC[C@H]2[C@@H]3CCC4CC(O)CC[C@]4(C)[C@H]3CC[C@]12C (stereo partly drawn) | > 200 µM | 27.5 µM | –
CC1(OCc2ccccc2)C(=O)N2C1NCC2(C)C (stereo not drawn) | > 251 µM | 117 µM | –
CC(=O)C(C(C)=O)=C1CCCC(O)O1 (stereo not drawn) | > 200 µM | 174 µM | –
CC(NC1=NCCO1)c1ccsc1 (stereo not drawn) | > 200 µM | 64.6 µM | –
CN(C)C(=S)/N=c1\ssc(=Nc2ccccc2)n1C | – | – | inactive
COC1/C=C/OC2(C)Oc3c(C)c(O)c4c(O)c(c(/C=N/N(c5ccccc5)c5ccccc5)c(O)c4c3C2=O)NC(=O)C(C)=C/C=C/C(C)C(O)C(C)C(O)C(C)C(OC(C)=O)C1C (stereo not drawn) | > 200 µM | 7.41 µM | –
CCOC(=O)C(CO)(CC(CO)(C(C)=O)C(=O)OCC)C(C)=O (stereo not drawn) | > 200 µM | 27.5 µM | –

SMILES | EC50 | IC50 | outcome
CC1CC(c2ccccc2)=Nc2ccccc2S1 (stereo not drawn) | > 14.1 µM | > 14.1 µM | –
CC(C)=C1C(=O)NC(=O)C1C(N)=O (stereo not drawn) | > 200 µM | > 200 µM | –
O=C(CS)Nc1cccc(O)c1 | > 200 µM | > 200 µM | –
CSc1ccc(C(=O)C(=O)c2ccc(SC)s2)s1 | > 200 µM | 155 µM | –
C=CC(=O)c1ccc2c(c1)OCCOCCOCCOCCOCCO2 | > 676 µM | 7.08 µM | –
CC(C)CC(NC(=O)C(Cc1ccc(O)cc1)NC(=O)C(C)N)C(=O)NCC(=O)NC(CCCCN)C(=O)NC(CCCCN)C(=O)NC(C(=O)NC(C)C(=O)NC(C(=O)NC(CC(=O)O)C(=O)O)C(C)O)C(C)C (stereo not drawn) (H-AYLGKKVATD-OH; configuration not given here) | – | – | inactive
O=C1CC(c2c(-c3ccccc3)[nH]c3ccccc23)C(=O)N1 (stereo not drawn) | – | – | inactive
S=P1(Oc2ccccc2)NNP2(=NP(N3CC3)(N3CC3)=NP(N3CC3)(N3CC3)=N2)NN1 (stereo not drawn) | > 50.1 µM | 5.13 µM | –
CN1S(=O)(=O)N(C)P12(N=P(CP(=NP13(N(C)S(=O)(=O)N1C)N(C)S(=O)(=O)N3C)(c1ccccc1)c1ccccc1)(c1ccccc1)c1ccccc1)N(C)S(=O)(=O)N2C | > 70.8 µM | > 70.8 µM | –
COC(=O)c1c(C(=O)OC)c2cc(C(=O)c3ccccc3)ccn2c1Cl | > 26.9 µM | > 26.9 µM | –
CCCCCCNCCc1cnc[nH]1 | > 200 µM | > 200 µM | –
Nc1ccc(S(=O)(=O)NNc2nc(N3CCCCC3)nc(N3CCCCC3)n2)cc1 | > 200 µM | > 200 µM | –
COP(=O)(OC)/C(=C/c1c[nH]c2ccccc12)C(=O)O | > 200 µM | > 200 µM | –
O=C(Nc1cc(C(=O)Nc2cccc(S(=O)(=O)O)c2)cc(C(=O)Nc2cccc(S(=O)(=O)O)c2)c1)c1cccc(C(=O)Nc2cc(C(=O)Nc3cccc(S(=O)(=O)O)c3)cc(C(=O)Nc3cccc(S(=O)(=O)O)c3)c2)c1 | 97.7 µM | > 100 µM | –
CCOP(=O)(OCC)C(Cc1cn(S(=O)(=O)c2ccc(C)cc2)cn1)C(=O)O (stereo not drawn) | > 200 µM | > 200 µM | –
Cc1ncc2c(n1)NC(c1ccc([N+](=O)[O-])cc1)NC2 (stereo not drawn) | > 69.2 µM | > 69.2 µM | –
Cc1nc2ccccc2c(=O)n1-c1ccccc1Br | > 214 µM | > 214 µM | –
O=C(NC(N1CCN(c2cc3c(cc2F)c(=O)c(C(=O)O)cn3C2CC2)CC1)(C(F)(F)F)C(F)(F)F)c1ccccc1 | > 200 µM | 105 µM | –
[C-]#[O+].[C-]#[O+].[C-]#[O+].[C-]#[O+].[Mo].c1ccc(P(CCP(CCP(c2ccccc2)c2ccccc2)c2ccccc2)CCP(c2ccccc2)c2ccccc2)cc1 (stereo not drawn) | > 0.617 µM | > 0.617 µM | –
O=Nc1c(O)ccc2ccccc12.O=Nc1c(O)ccc2ccccc12.O=Nc1c([O-])ccc2ccccc12.[Fe+3] | > 129 µM | 95.5 µM | –
CSC1OC(C)(C)OC1=O (stereo not drawn) | > 200 µM | > 200 µM | –

SMILES | EC50 | IC50 | outcome
COC(=O)C(C(=O)Cc1ccccc1[N+](=O)[O-])C(=O)OC | > 251 µM | 102 µM | –
C[S+](C)c1ccccc1 | > 1050 µM | 457 µM | –
c1cnc(SCc2nc3ccccc3o2)nc1 | 38 µM | > 200 µM | –
COC(=O)C1=C(C)NC2=C(C(=O)c3ccccc32)C1c1cn[nH]c1-c1ccccc1 (stereo not drawn) | > 20 µM | > 20 µM | –
CC(C)(C)C(=O)OCOP(=O)(OCOC(=O)C(C)(C)C)OCC1CCC(n2ccc(=O)[nH]c2=O)O1 (stereo not drawn) | 3.39 µM | 72.4 µM | –
Clc1ccc(CCn2ccc3ccccc32)c(Cl)c1 | > 200 µM | > 200 µM | –
CC(=O)c1c(O)ccc2c1CC(CC=O)O2 (stereo not drawn) | > 589 µM | 22.9 µM | –
COC(=O)c1ccc(CCc2cc(O)ccc2O)cc1 | > 200 µM | 4.9 µM | –
O=C(c1ccccc1)N(CCCCNC(=O)C(F)(F)F)CCCNC(=O)C(F)(F)F | > 200 µM | > 200 µM | –
COc1ccc(N=Nc2c(C)c(C#N)c(=S)n(C3OC(COC(C)=O)C(OC(C)=O)C(OC(C)=O)C3OC(C)=O)c2C)cc1 (stereo not drawn) | > 200 µM | > 200 µM | –
CC1(C)C(O)CC[C@@]2(C)C1CC[C@]1(C)C2CC=C2[C@@H]3C[C@](C)(C(=O)O)CC[C@]3(C)CCC21C (stereo partly drawn) | > 200 µM | 27.5 µM | –
CC(=O)OC[C@H]1CN(OC(C)=O)C[C@@H](n2cc(C)c(=O)[nH]c2=O)O1 | > 200 µM | > 200 µM | –
O=C1CC[C@@]23CC(=O)O[C@@H]2CCCC3C1 (stereo partly drawn) | – | – | inactive
CC(NC(=O)C(C)NC(=O)C(CC(N)=O)NC(=O)CN)C(=O)NC(CO)C(=O)NC(C)C(=O)NC(CCCN=C(N)N)C(=O)NC(CCCN=C(N)N)C(N)=O (stereo not drawn) (H-GNAASARR-NH2; configuration not given here) | – | – | inactive
COc1cccc2c1OCC1Cc3ccccc3OC21 (stereo not drawn) | – | – | inactive
Cc1ccc(S(=O)(=O)N/N=c2/sc3ccccc3n2C)cc1 | > 200 µM | > 200 µM | –
Cn1c2ccccc2c2c(=O)[nH]c(=O)[nH]c21 | > 200 µM | > 200 µM | –
O=P1(CCc2ccc(Cl)cc2)CC(Br)C(Br)C1 (stereo not drawn) | > 631 µM | 38 µM | –
COc1ccccc1OCC(Cn1c(=O)nc(-c2ccccc2)c2cc(Cl)ccc21)OC(N)=O (stereo not drawn) | > 28.2 µM | > 28.2 µM | –
O=C(Nc1ccc(/C=C/c2ccc(NC(=O)c3ccc(O)cc3O)cc2S(=O)(=O)O)c(S(=O)(=O)O)c1)c1ccc(O)cc1O | > 151 µM | 126 µM | –
CC1=C(C)C1[N+](=O)[O-] | > 200 µM | > 200 µM | –

SMILES | EC50 | IC50 | outcome
COc1ccccc1CO[C@]1(C)CNCC(C)(C)NC(=O)[C@@](C)(OCc2ccccc2OC)CNCC(C)(C)NC1=O | > 200 µM | > 200 µM | –
[Cl][Cu][Cl] | > 200 µM | 182 µM | –
COc1ccc(C2Oc3c(cccc3OC)C=C2[N+](=O)[O-])cc1 (stereo not drawn) | > 200 µM | 1.51 µM | –
CC(C)(C)c1cc(C(=O)Nc2cc(Br)c(Br)cc2S(N)(=O)=O)cc(C(C)(C)C)c1O | > 200 µM | 8.13 µM | –
Cc1csc(NNC(N)=O)n1 | > 200 µM | > 200 µM | –
O=C(O)CN(CCN(CC(=O)O)CC(=O)O)CCN(CC(=O)O)CC(=O)O | > 200 µM | > 200 µM | –
O=S(=O)(O)O | > 263 µM | 40.7 µM | –
Cc1ccc(SSCCCCS(=O)O)cc1 | – | – | inactive
COC(=O)C1CC(c2ccc(Cl)cc2)=NO1 (stereo not drawn) | > 282 µM | > 282 µM | –
CCCNC(=O)c1nc(SC)sc1NC(=O)c1ccc([N+](=O)[O-])cc1 | > 200 µM | 191 µM | –
N#C/C(=C(\N)c1ccccc1)c1ccccc1 | > 200 µM | 97.7 µM | –
CCCC(=O)c1c(NOC2OCC(OC(C)=O)C(OC(C)=O)C2OC(C)=O)nc(OC)n(C)c1=O (stereo not drawn) | > 14.5 µM | > 14.5 µM | –
O=C1CN(S(=O)(=O)c2ccc([N+](=O)[O-])cc2)CC(=O)CN(S(=O)(=O)c2ccc([N+](=O)[O-])cc2)CC(=O)CN(S(=O)(=O)c2ccc([N+](=O)[O-])cc2)C1 | > 200 µM | > 200 µM | –
CCC[CH2][Sn]1([CH2]CCC)[O]C(=O)c2cccnc2[S]1 | > 33.9 µM | 0.631 µM | –
COc1cc2c3c(cccc3c1)C(=O)N(CCN1CCCC1)C2=O | > 200 µM | 2.45 µM | –
Cc1cc2c(cn1)C(=O)OCC2 | – | – | inactive
COc1ccc(NC(C)c2ccncc2)cc1 (stereo not drawn) | > 200 µM | > 200 µM | –
O=C1C=CC(=O)c2c1ccc1c3ccccc3n(-c3cccc([N+](=O)[O-])c3)c21 | > 100 µM | 4.79 µM | –
COc1cc2c3c(c1)ncn3C(=O)CS2 | > 200 µM | > 100 µM | –
O=C(OCc1ccccc1)[C@H]1O[C@@H]1C(=O)OCc1ccccc1 | > 200 µM | 25.7 µM | –
COc1ccc(-c2coc3cc(O)ccc3c2=O)c(O)c1OC | > 200 µM | 14.8 µM | –
